In PubChem BioAssay AID216 (DTP/NCI, 2004) one finds T/C data, which are given here for 9 compounds.

This test deals with BDF1 mice, P288 leukemia ip, survival T/C. The test is described as follows: NCI In Vivo Anticancer Drug Screen. Data for tumor model P288 Lymphocytic Leukemia (intraperitoneal) in B6D2F1 (BDF1) mice. To be noted: endpoint: survival time, mean or median, higher = longer survival. How it is done: The antitumor activity of compounds was measured in mice bearing transplantable tumors. Survival or tumor size were measured and the results are expressed as the measurement made in the treated group (T) divided by the measurement made in the vehicle treated control group (C). The tumor model used in this assay is P288 Lymphocytic Leukemia (intraperitoneal) in B6D2F1 (BDF1) mice

Setting [1] is: dose: 1.0 mg/kg/injection, schedule: Q01DX010 (ip), vehicle: other.
[2] abbreviates: dose: 2.0 mg/kg/injection, schedule: Q01DX010 (ip), vehicle: other.
[3] abbreviates: dose: 4.0 mg/kg/injection, schedule: Q01DX010 (ip), vehicle: other.
The mark [4] stands for this setting: dose: 8.0 mg/kg/injection, schedule: Q01DX010 (ip), vehicle: other.
The mark [5] stands for this setting: dose: 3.1 mg/kg/injection, schedule: Q01DX Z (ip), vehicle: carboxymethylcellulose (CMC).
The mark [6] stands for this setting: dose: 16.0 mg/kg/injection, schedule: Q01DX010 (ip), vehicle: saline.

SMILES strings stand for the structures. “And” between values parts separate entries of the source, which are not always exact repeats. Identical values can stand only once. Toxic doses and inconclusive results are not listed.

As to `O=C(Nc1ccc(C2=NCCCN2)cc1)c1ccc(NC(=O)c2ccc(C3=NCCCN3)cc2)cc1`, the T/C was 113 % of control (dose: 0.24 mg/kg/injection, schedule: Q01DX Z (ip), vehicle: carboxymethylcellulose (CMC)); 94 % of control (dose: 0.49 mg/kg/injection, schedule: Q01DX Z (ip), vehicle: carboxymethylcellulose (CMC)); 121 % of control (dose: 0.98 mg/kg/injection, schedule: Q01DX Z (ip), vehicle: carboxymethylcellulose (CMC)); 120 % of control under setting [1]; 119 % of control (dose: 1.95 mg/kg/injection, schedule: Q01DX Z (ip), vehicle: carboxymethylcellulose (CMC)); 124 % of control under setting [2]. For the same compound, the T/C is, setting by setting: (dose: 3.9 mg/kg/injection, schedule: Q01DX Z (ip), vehicle: carboxymethylcellulose (CMC)) 183 % of control; under setting [3], 184 % of control and 237 % of control; (dose: 7.8 mg/kg/injection, schedule: Q01DX Z (ip), vehicle: carboxymethylcellulose (CMC)) 245 % of control; under setting [4], 237 % of control and 284 % of control; (dose: 15.6 mg/kg/injection, schedule: Q01DX Z (ip), vehicle: carboxymethylcellulose (CMC)) 156 % of control; (dose: 16.0 mg/kg/injection, schedule: Q01DX010 (ip), vehicle: other) 92 % of control. For the same compound, the T/C (dose: 31.25 mg/kg/injection, schedule: Q01DX Z (ip), vehicle: carboxymethylcellulose (CMC)) is 103 % of control.

With `C[n+]1c2ccccc2nc2c(N)cc(N)cc21`, the T/C runs as follows: under setting [5], 114 % of control; (dose: 6.25 mg/kg/injection, schedule: Q01DX Z (ip), vehicle: carboxymethylcellulose (CMC)) 97 % of control; (dose: 6.3 mg/kg/injection, schedule: Q01DX Z (ip), vehicle: carboxymethylcellulose (CMC)) 115 % of control; (dose: 12.5 mg/kg/injection, schedule: Q01DX Z (ip), vehicle: carboxymethylcellulose (CMC)) 104 % of control and 105 % of control; (dose: 25.0 mg/kg/injection, schedule: Q01DX Z (ip), vehicle: carboxymethylcellulose (CMC)) 117 % of control and 96 % of control.

Turning to `O=C(Nc1ccc(C2=NCCCN2)cc1)c1ccc(C(=O)Nc2ccc(C3=NCCCN3)cc2)cc1`, the T/C (dose: 0.2 mg/kg/injection, schedule: Q01DX Z (ip), vehicle: water) is 100 % of control; the T/C (dose: 0.4 mg/kg/injection, schedule: Q01DX Z (ip), vehicle: water) was 109 % of control; the T/C (dose: 0.5 mg/kg/injection, schedule: Q01DX010 (ip), vehicle: other) was 116 % of control and 120 % of control; the T/C under setting [1] is 150 % of control; the T/C (dose: 1.6 mg/kg/injection, schedule: Q01DX Z (ip), vehicle: water) is 177 % of control; the T/C under setting [2] was 192 % of control and 216 % of control. The T/C is 273 % of control (dose: 3.1 mg/kg/injection, schedule: Q01DX Z (ip), vehicle: water); 164 % of control and 212 % of control under setting [3]; 91 % of control under setting [4].

Take `CC[n+]1c(-c2ccccc2)c2cc(N)ccc2c2ccc(N)cc21`: the T/C was 152 % of control (dose: 2.5 mg/kg/injection, schedule: Q01DX010 (ip), vehicle: saline); 170 % of control and 228 % of control (dose: 5.0 mg/kg/injection, schedule: Q01DX010 (ip), vehicle: saline); 223 % of control and 285 % of control (dose: 10.0 mg/kg/injection, schedule: Q01DX010 (ip), vehicle: saline); 158 % of control and 185 % of control (dose: 20.0 mg/kg/injection, schedule: Q01DX010 (ip), vehicle: saline); 100 % of control (dose: 40.0 mg/kg/injection, schedule: Q01DX010 (ip), vehicle: saline).

On to `O=C(Nc1ccc(C2=NCCN2)cc1)c1cccc(C(=O)Nc2ccc(C3=NCCN3)cc2)c1`, for which the T/C (dose: 2.4 mg/kg/injection, schedule: Q01DX Z (ip), vehicle: carboxymethylcellulose (CMC)) was 101 % of control; the T/C (dose: 4.7 mg/kg/injection, schedule: Q01DX Z (ip), vehicle: carboxymethylcellulose (CMC)) is 92 % of control; the T/C (dose: 9.4 mg/kg/injection, schedule: Q01DX Z (ip), vehicle: carboxymethylcellulose (CMC)) was 105 % of control; the T/C under setting [6] was 211 % of control and 262 % of control; the T/C (dose: 18.8 mg/kg/injection, schedule: Q01DX Z (ip), vehicle: carboxymethylcellulose (CMC)) is 161 % of control; the T/C (dose: 32.0 mg/kg/injection, schedule: Q01DX010 (ip), vehicle: saline) is 255 % of control and 375 % of control. Moreover, the T/C is 230 % of control (dose: 37.5 mg/kg/injection, schedule: Q01DX Z (ip), vehicle: carboxymethylcellulose (CMC)); 333 % of control and 375 % of control (dose: 64.0 mg/kg/injection, schedule: Q01DX010 (ip), vehicle: saline); 112 % of control (dose: 75.0 mg/kg/injection, schedule: Q01DX Z (ip), vehicle: carboxymethylcellulose (CMC)); 268 % of control and 333 % of control (dose: 128.0 mg/kg/injection, schedule: Q01DX010 (ip), vehicle: saline).

In the case of `Nc1nc(=S)c2ncn(C3OC(CO)C(O)C3O)c2[nH]1` (stereo unspecified), the T/C (dose: 1.0 mg/kg/injection, schedule: Q01DX010 (ip), vehicle: saline) is 105 % of control; the T/C (dose: 2.0 mg/kg/injection, schedule: Q01DX010 (ip), vehicle: saline) is 115 % of control; the T/C (dose: 4.0 mg/kg/injection, schedule: Q01DX010 (ip), vehicle: saline) was 118 % of control and 120 % of control; the T/C (dose: 8.0 mg/kg/injection, schedule: Q01DX010 (ip), vehicle: saline) was 112 % of control and 95 % of control; the T/C under setting [6] was 106 % of control; the T/C (dose: 5.0 micrograms/kg/injection, schedule: Q01DX Z (ip), vehicle: carboxymethylcellulose (CMC)) is 105 % of control. Further, the T/C is 96 % of control (dose: 10.0 micrograms/kg/injection, schedule: Q01DX Z (ip), vehicle: carboxymethylcellulose (CMC)) and 94 % of control (dose: 20.0 micrograms/kg/injection, schedule: Q01DX Z (ip), vehicle: carboxymethylcellulose (CMC)).

Consider `C[N+](C)(C)c1ncnc2nc[nH]c12`, for which the T/C (dose: 0.4 mg/kg/injection, schedule: Q01DX Z (ip), vehicle: carboxymethylcellulose (CMC)) was 98 % of control; the T/C (dose: 0.8 mg/kg/injection, schedule: Q01DX Z (ip), vehicle: carboxymethylcellulose (CMC)) was 94 % of control; the T/C (dose: 1.6 mg/kg/injection, schedule: Q01DX Z (ip), vehicle: carboxymethylcellulose (CMC)) is 98 % of control; the T/C under setting [5] was 98 % of control; the T/C (dose: 15.0 mg/kg/injection, schedule: Q01DX010 (ip), vehicle: saline) was 88 % of control and 100 % of control; the T/C (dose: 30.0 mg/kg/injection, schedule: Q01DX010 (ip), vehicle: saline) was 100 % of control. Further, the T/C is, setting by setting: (dose: 60.0 mg/kg/injection, schedule: Q01DX010 (ip), vehicle: saline) 100 % of control; (dose: 120.0 mg/kg/injection, schedule: Q01DX010 (ip), vehicle: saline) 100 % of control.

In the case of `CCOC(=O)NP(=O)(N1CC1(C)C)N1CC1(C)C` (stereo unspecified), the T/C by setting is: (dose: 16.0 mg/kg/injection, schedule: Q01DX Z (ip), vehicle: carboxymethylcellulose (CMC)) 95 % of control; (dose: 31.0 mg/kg/injection, schedule: Q01DX Z (ip), vehicle: carboxymethylcellulose (CMC)) 98 % of control; (dose: 62.5 mg/kg/injection, schedule: Q01DX Z (ip), vehicle: carboxymethylcellulose (CMC)) 112 % of control; (dose: 250.0 mg/kg/injection, schedule: Q01DX Z (ip), vehicle: carboxymethylcellulose (CMC)) 180 % of control; (dose: 500.0 mg/kg/injection, schedule: Q01DX Z (ip), vehicle: carboxymethylcellulose (CMC)) 117 % of control.

As to `C[C@H](N)C(=O)N[C@@H]1[C@H]2C(=C(O)C[C@@H](O)[C@@H]2O)C(=O)O[C@@H]1C`, the T/C runs as follows: (dose: 150.0 mg/kg/injection, schedule: Q01DX010 (ip), vehicle: saline) 112 % of control; (dose: 300.0 mg/kg/injection, schedule: Q01DX010 (ip), vehicle: saline) 156 % of control; (dose: 600.0 mg/kg/injection, schedule: Q01DX010 (ip), vehicle: saline) 212 % of control.
